Tests used:
[1] = biological target: BRD4(49-170) bromodomain (Homo sapiens (Human), UniProt O60885); test: BRD4 AlphaScreen Assay; conditions: binding to biotin-H4(1-21) Ac-K5/8/12/16
Method: (§1) Specific binding of the CBP or BRD4 bromodomain to the acetylated peptide derived from the H4 histone substrate (tetra acetylated H4(1-21) Ac-K5/8/12/16) was measured in absence or presence of inhibitors. The GST tagged bromodomains of CBP (1081-1197) and BRD4 (49-170) were obtained from BPS Bioscience and binding to the biotinylated H4(1-21) Ac-K5/8/12/16 (AnaSpec. 64989) was assessed via AlphaScreen technology (Perkin Elmer).
(§2) 5 nM GST-CBP(1081-1197) and 20 nM biotin-H4(1-21) Ac-K5/8/12/16 (AnaSpec. 64989) were incubated with varying concentrations of CBP inhibitors in 15 μL of buffer containing 50 mM HEPES 7.5, […], 1 mM TCEP, and 0.003% Tween-20. After 30 minutes incubation at room temperature, 15 μL of detection buffer (BPS Bio. 33006) containing 7 μg/mL of Glutathione AlphaLisa acceptor beads (Perkin Elmer AL109) and 14 μg/mL of Streptavidin donor beads (Perkin Elmer 676002) was then added to the previous mixture. The reaction was incubated for an additional 2 hours at room temperature, and the AlphaScreen signal was quantified using the Envision Multilabel plate reader. As negative control, GST-CBP(1081-1197) was incubated with the non-acetylated biotin-H4(1-21) peptide(AnaSpec. 62555) and in presence of 0.25% of final DMSO concentration.
(§3) the binding of 2.5 nM of BRD4(49-170) to 10 nM biotin-H4(1-21) Ac-K5/8/12/16 (AnaSpec. 64989) was assessed following the same procedure described for the CBP assay. The standard dose response curves were fitted by Genedata Screener software using the variable-slope model: Signal=Signalnegative control+(SignalDMSO control−Signalnegative control)/(1+(IC50/Dose)^Hill slope).
(§4) Only Signal and Dose in the equation were treated as know values.

[2] = biological target: GST-CBP(1081-1197) bromodomain (Homo sapiens (Human), UniProt Q92793); test: CBP AlphaScreen Assay; conditions: binding to biotin-H4(1-21) Ac-K5/8/12/16
Method: as §1, §2, §3, §4

Chain of GST-CBP(1081-1197) bromodomain (Q92793 1081-1197): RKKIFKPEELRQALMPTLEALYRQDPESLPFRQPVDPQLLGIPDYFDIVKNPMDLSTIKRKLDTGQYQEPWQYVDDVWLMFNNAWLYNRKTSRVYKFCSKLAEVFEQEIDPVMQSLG

Row | Compound | IC50 [1] [nM] | IC50 [2] [nM]
1 | CC1C(=O)N(C)Cc2c(-c3cccc4nc(-c5cnn(C)c5)c(C#N)cc34)nc(C3CCOCC3)n21 (single isomer, unassigned) [Example 8b, 5-(5,7-dimethyl-6-oxo-3-(tetrahydro-2H-pyran-4-yl)-5,6,7,8-tetrahydroimidazo[1,5-a]pyrazin-1-yl)-2-(1-methyl-1H-pyrazol-4-yl)quinoline-3-carbonitrile] | 332 | 2
2 | Cc1ncc(-c2cc3ccc(F)c(-c4nc(C5CCOCC5)n5c4CN(C)C(=O)C5C)c3cn2)s1 (single isomer, unassigned) [Example 37b, 1-(7-Fluoro-3-(2-methylthiazol-5-yl)isoquinolin-8-yl)-5,7-dimethyl-3-(tetrahydro-2H-pyran-4-yl)-7,8-dihydroimidazo[1,5-a]pyrazin-6(5H)-one] | ≥ 25000 | 647
3 | CC1C(=O)N(C)Cc2c(-c3cccc4nc(-c5cnn(C)c5)c(C(F)F)cc34)nc(C3CCN(CCF)CC3)n21 (centres unmarked) [Example 81, 1-(3-(difluoromethyl)-2-(1-methyl-1H-pyrazol-4-yl)quinolin-5-yl)-3-(1-(2-fluoroethyl)piperidin-4-yl)-5,7-dimethyl-7,8-dihydroimidazo[1,5-a] pyrazin-6(5H)-one] | 9630 | 153
4 | CC1C(=O)N(C)Cc2c(-c3cccc4nc(-c5cnn(C)c5)c(C(F)(F)F)cc34)nc(C3CCOCC3)n21 (single isomer, unassigned) [Example 26b, 5,7-Dimethyl-1-(2-(1-methyl-1H-pyrazol-4-yl)-3-(trifluoromethyl)quinolin-5-yl)-3-(tetrahydro-2H-pyran-4-yl)-7,8-dihydroimidazo[1,5-a]pyrazin-6(5H)-one] | 11700 | 271
5 | C[C@@H]1C(=O)N(C)Cc2c(-c3cccc4nc(-c5ccn(C)n5)c(C(F)F)cc34)nc(C3CCOCC3)n21 [Example 89a, (R)-1-(3-(difluoromethyl)-2-(1-methyl-1H-pyrazol-3-yl)quinolin-5-yl)-5,7-dimethyl-3-(tetrahydro-2H-pyran-4-yl)-7,8-dihydroimidazo[1,5-a] pyrazin-6(5H)-one] | 101 | 1
6 | C[C@@H]1C(=O)N(C)Cc2c(-c3cccc4nc(-c5cnn(C)c5)c(C(F)F)cc34)nc(C3CC3)n21 [Example 110b, (R)-3-cyclopropyl-1-(3 (difluoromethyl)-2-(1-methyl-1H-pyrazol-4-yl)quinolin-5-yl)-5,7-dimethyl-7,8-dihydroimidazo[1,5-a] pyrazin-6(5H)-one] | 407 | 1
7 | CC1C(=O)N(C)Cc2c(-c3cccc4nc(-c5cnn(C)c5)c(C(F)F)cc34)nc(C3CCN(CC(F)F)CC3)n21 (centres unmarked) [Example 78, 3-(1-(2,2-difluoroethyl)piperidin-4-yl)-1-(3-(difluoromethyl)-2-(1-methyl-1H-pyrazol-4-yl)quinolin-5-yl)-5,7-dimethyl-7,8-dihydroimidazo[1,5-a] pyrazin-6(5H)-one] | 3770 | 41
8 | CC1C(=O)N(C)Cc2c(-c3cccc4nc(-c5cnn(C)c5)c(C#N)cc34)nc(C3CC3)n21 (single isomer, unassigned) [Example 56b, 5-(3-cyclopropyl-5,7-dimethyl-6-oxo-5,6,7,8-tetrahydroimidazo[1,5-a]pyrazin-1-yl)-2-(1-methyl-1H-pyrazol-4-yl)quinoline-3-carbonitrile] | 132 | 1
9 | CC1C(=O)N(C)Cc2c(-c3cccc4nc(-c5cnn(C)c5)c(C(F)F)cc34)nc(C3(C)CCOCC3)n21 (single isomer, unassigned) [Example 32a, 1-(3-(Difluoromethyl)-2-(1-methyl-1H-pyrazol-4-yl)quinolin-5-yl)-5,7-dimethyl-3-(4-methyltetrahydro-2H-pyran-4-yl)-7,8-dihydroimidazo[1,5-a]pyrazin-6(5H)-one] | ≥ 25000 | 490
10 | CC1C(=O)N(C)Cc2c(-c3cccc4nc(C5=CCOCC5)c(C(F)F)cc34)nc(C3CC3)n21 (centres unmarked) [Example 9, 3-Cyclopropyl-1-(3-(difluoromethyl)-2-(3,6-dihydro-2H-pyran-4-yl)quinolin-5-yl)-5,7-dimethyl-7,8-dihydroimidazo[1,5-a]pyrazin-6(5H)-one] | 366 | 3
11 | CC1C(=O)N(C)Cc2c(-c3cccc4nc(-c5cnn(C)c5)c(C(F)F)cc34)nc(C3CCN(S(C)(=O)=O)CC3)n21 (centres unmarked) [Example 83, 1-(3-(difluoromethyl)-2-(1-methyl-1H-pyrazol-4-yl)quinolin-5-yl)-5,7-dimethyl-3-(1-(methylsulfonyl)piperidin-4-yl)-7,8-dihydroimidazo[1,5-a] pyrazin-6(5H)-one] | 3230 | 42
12 | C[C@H]1C(=O)N(C)Cc2c(-c3cccc4nc(-c5ccn(C)n5)c(C(F)F)cc34)nc(C3CCOCC3)n21 [Example 89b, (S)-1-(3-(difluoromethyl)-2-(1-methyl-1H-pyrazol-3-yl)quinolin-5-yl)-5,7-dimethyl-3-(tetrahydro-2H-pyran-4-yl)-7,8-dihydroimidazo[1,5-a] pyrazin-6(5H)-one] | 20800 | 482
13 | CC(=O)N1CC(c2nc(-c3cccc4nc(-c5cnn(C)c5)c(C(F)F)cc34)c3n2C(C)C(=O)N(C)C3)C1 (centres unmarked) [Example 19, 3-(1-Acetylazetidin-3-yl)-1-(3-(difluoromethyl)-2-(1-methyl-1H-pyrazol-4-yl)quinolin-5-yl)-5,7-dimethyl-7,8-dihydroimidazo[1,5-a]pyrazin-6(5H)-one] | 5900 | 41
14 | CC1C(=O)N(C)Cc2c(-c3cccc4nc(-c5cn(C)cn5)c(C(F)F)cc34)nc(C3CC3)n21 (centres unmarked) [Example 69, 3-cyclopropyl-1-(3-(difluoromethyl)-2-(1-methyl-1H-imidazol-4-yl)quinolin-5-yl)-5,7-dimethyl-7,8-dihydroimidazo[1,5-a] pyrazin-6(5H)-one] | 1530 | 13
15 | CC1C(=O)N(C)Cc2c(-c3cccc4cc(C5CCOCC5)ncc34)nc(C3CCOCC3)n21 (single isomer, unassigned) [Example 15b, 5,7-dimethyl-3-(tetrahydro-2H-pyran-4-yl)-1-(3-(tetrahydro-2H-pyran-4-yl)isoquinolin-8-yl)-7,8-dihydroimidazo[1,5-a]pyrazin-6(5H)-one] | 195 | 2
16 | CC1C(=O)N(C)Cc2c(-c3cccc4nc(-c5ncco5)c(C(F)F)cc34)nc(C3CC3)n21 (centres unmarked) [Example 74, 3-cyclopropyl-1-(3-(difluoromethyl)-2-(oxazol-2-yl)quinolin-5-yl)-5,7-dimethyl-7,8-dihydroimidazo[1,5-a] pyrazin-6(5H)-one] | 179 | 4
17 | Cc1ncc(-c2cc3ccc(C)c(-c4nc(C5CCOCC5)n5c4CN(C)C(=O)C5C)c3cn2)s1 (single isomer, unassigned) [Example 38a] | 1810 | 8
18 | Cc1ncc(-c2cc3cccc(-c4nc(C5CC5)n5c4CN(C)C(=O)C5C)c3cn2)s1 (centres unmarked) [Example 13, 3-Cyclopropyl-5,7-dimethyl-1-(3-(2-methylthiazol-5-yl)isoquinolin-8-yl)-7,8-dihydroimidazo[1,5-a]pyrazin-6(5H)-one] | 187 | 2
19 | Cc1ncn(-c2nc3cccc(-c4nc(C5CC5)n5c4CN(C)C(=O)C5C)c3cc2C(F)F)n1 (centres unmarked) [Example 67, 3-cyclopropyl-1-(3-(difluoromethyl)-2-(3-methyl-1H-1,2,4-triazol-1-yl)quinolin-5-yl)-5,7-dimethyl-7,8-dihydroimidazo[1,5-a] pyrazin-6(5H)-one] | 319 | 3
20 | CN1Cc2c(-c3cccc4cc(C5CCOCC5)ncc34)nc(C3CCOCC3)n2CC1=O [Example 99, 7-methyl-3-(tetrahydro-2H-pyran-4-yl)-1-(3-(tetrahydro-2H-pyran-4-yl)isoquinolin-8-yl)-7,8-dihydroimidazo[1,5-a] pyrazin-6(5H)-one] | 18100 | 45
21 | Cc1cn(-c2nc3cccc(-c4nc(C5CC5)n5c4CN(C)C(=O)C5C)c3cc2C(F)F)nn1 (centres unmarked) [Example 12, 3-cyclopropyl-1-(3-(difluoromethyl)-2-(4-methyl-1H-1,2,3-triazol-1-yl)quinolin-5-yl)-5,7-dimethyl-7,8-dihydroimidazo[1,5-a]pyrazin-6(5H)-one] | 130 | 3
22 | CN1Cc2c(-c3c(F)ccc4cc(C5CCOCC5)ncc34)nc(C3CCOCC3)n2CC1=O [Example 101, 1-(7-fluoro-3-(tetrahydro-2H-pyran-4-yl)isoquinolin-8-yl)-7-methyl-3-(tetrahydro-2H-pyran-4-yl)-7,8-dihydroimidazo[1,5-a] pyrazin-6(5H)-one] | 25000 | 219

— patent US10899769B2, “Imidazopiperazinone inhibitors of transcription activating proteins” (Board of Regents, The University of Texas System, priority 2018, dated 2021)
